Tests used:
Assay type in all cases: in vivo
[1] = tested on: crabgrass, large (Digitaria sanguinalis); test: Test A preemergence; conditions: for Plant response rating, Crabgrass, Large: 125 g ai/ha, preemergence, 0 to 100 scale (0 no effect, 100 complete control); for Crabgrass, Large plant response rating (0 to 100 scale): Preemergence, 500 g ai/ha, 0 is no effect, 100 is complete control
Method in brief: (§1)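 Each rating is a visual injury score from 0 to 100 given about 10 d after treatment, judged against untreated controls kept alongside in the greenhouse. In loam soil–sand blend, seeds got a preemergence directed soil spray, while postemergence plants were 2 to 10 cm tall at spraying.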

[2] = tested on: corn (Zea mays); test: Test A preemergence; conditions: for Plant response rating, Corn: 125 g ai/ha, preemergence, 0 to 100 scale (0 no effect, 100 complete control); for Corn plant response rating (0 to 100 scale): Preemergence, 500 g ai/ha, 0 is no effect, 100 is complete control
Method in brief: as §1

[3] = tested on: wheat (Triticum aestivum); test: Test A preemergence; conditions: for Plant response rating, Wheat: 125 g ai/ha, preemergence, 0 to 100 scale (0 no effect, 100 complete control); for Wheat plant response rating (0 to 100 scale): Preemergence, 500 g ai/ha, 0 is no effect, 100 is complete control
Method in brief: as §1

[4] = tested on: velvetleaf (Abutilon theophrasti); test: Test A preemergence; conditions: for Plant response rating, Velvetleaf: 125 g ai/ha, preemergence, 0 to 100 scale (0 no effect, 100 complete control); for Velvetleaf plant response rating (0 to 100 scale): Preemergence, 500 g ai/ha, 0 is no effect, 100 is complete control
Method in brief: as §1

[5] = tested on: pigweed (Amaranthus retroflexus); test: Test A preemergence; conditions: for Plant response rating, Pigweed: 125 g ai/ha, preemergence, 0 to 100 scale (0 no effect, 100 complete control); for Pigweed plant response rating (0 to 100 scale): Preemergence, 500 g ai/ha, 0 is no effect, 100 is complete control
[6] = tested on: giant foxtail (Setaria faberii); test: Test A preemergence; conditions: for Plant response rating, Foxtail, Giant: 125 g ai/ha, preemergence, 0 to 100 scale (0 no effect, 100 complete control); for Foxtail, Giant plant response rating (0 to 100 scale): Preemergence, 500 g ai/ha, 0 is no effect, 100 is complete control
Method in brief: as §1

[7] = tested on: barnyardgrass (Echinochloa crus-galli); test: Test A preemergence; conditions: for Plant response rating, Barnyardgrass: 125 g ai/ha, preemergence, 0 to 100 scale (0 no effect, 100 complete control); for Barnyardgrass plant response rating (0 to 100 scale): Preemergence, 500 g ai/ha, 0 is no effect, 100 is complete control
Method in brief: as §1

[8] = tested on: crabgrass, large (Digitaria sanguinalis); test: Test A postemergence
Method in brief: as §1

[9] = tested on: corn (Zea mays); test: Test A postemergence
Method in brief: as §1

[10] = tested on: wheat (Triticum aestivum); test: Test A postemergence
Method in brief: as §1

[11] = tested on: velvetleaf (Abutilon theophrasti); test: Test A postemergence
Method in brief: as §1

[12] = tested on: pigweed (Amaranthus retroflexus); test: Test A postemergence
Method in brief: as §1

[13] = tested on: morningglory (Ipomoea spp.); test: Test A postemergence
Method in brief: as §1

[14] = tested on: giant foxtail (Setaria faberii); test: Test A postemergence
Method in brief: as §1

[15] = tested on: barnyardgrass (Echinochloa crus-galli); test: Test A postemergence
Method in brief: as §1

[16] = tested on: rice (Oryza sativa); test: Test C flooded paddy test; conditions: Flood, 0 is no effect, 100 is complete control
Method in brief: (§2)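 Visual 0–100 injury rating versus controls (0 = no effect, 100 = complete control) at 13 to 15 d. 2-leaf-stage plants; pots flooded 3 cm over soil surface, test compound added to paddy water; greenhouse.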

[17] = tested on: sedge, umbrella (small-flower umbrella sedge, Cyperus difformis); test: Test C flooded paddy test; conditions: Flood, 0 is no effect, 100 is complete control
Method in brief: as §2

[18] = tested on: ducksalad (Heteranthera limosa); test: Test C flooded paddy test; conditions: Flood, 0 is no effect, 100 is complete control
Method in brief: as §2

[19] = tested on: barnyardgrass (Echinochloa crus-galli); test: Test C flooded paddy test; conditions: Flood, 0 is no effect, 100 is complete control
Method in brief: as §2

[20] = tested on: morningglory (Ipomoea spp.); test: Test A preemergence
Method in brief: as §1

[21] = tested on: sedge, umbrella (small-flower umbrella sedge, Cyperus difformis); test: Test B flooded paddy test; conditions: Flood, 1000 g ai/ha; 0 to 100 scale where 0 is no effect and 100 is complete control; 13 to 15 d
Method in brief: (§3)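 Response scored visually against untreated controls, 0 = no effect and 100 = complete control, 13–15 d after treatment in the greenhouse. Compounds added to paddy water held 3 cm above soil surface. Treatment given at 2-leaf stage.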

[22] = tested on: rice (Oryra sativa); test: Test B flooded paddy test; conditions: Flood, 1000 g ai/ha; 0 to 100 scale where 0 is no effect and 100 is complete control; 13 to 15 d
Method in brief: as §3

[23] = tested on: ducksalad (Heteranthera limosa); test: Test B flooded paddy test; conditions: Flood, 1000 g ai/ha; 0 to 100 scale where 0 is no effect and 100 is complete control; 13 to 15 d
Method in brief: as §3

[24] = tested on: barnyardgrass (Echinochloa crus-galli); test: Test B flooded paddy test; conditions: Flood, 1000 g ai/ha; 0 to 100 scale where 0 is no effect and 100 is complete control; 13 to 15 d
Method in brief: as §3

[25] = 500 g ai/ha, postemergence, 0 to 100 scale, 0 no effect, 100 complete control
[26] = Postemergence, 125 g ai/ha, visual injury, 0 to 100 scale (0 no effect, 100 complete control), approx. 10 d

SMILES: O=C1NCC(c2cccnc2)C1C(=O)Nc1ccccc1F (racemic) [Compound 363]
- Plant response rating, Crabgrass, Large [1]: 0
- Crabgrass, Large plant response rating (0 to 100 scale) [1]: 0
- Plant response rating, Corn [2]: 0
- Corn plant response rating (0 to 100 scale) [2]: 0
- Plant response rating, Wheat [3]: 0
- Wheat plant response rating (0 to 100 scale) [3]: 0
- Plant response rating, Velvetleaf [4]: 0
- Velvetleaf plant response rating (0 to 100 scale) [4]: 0
- Plant response rating, Pigweed [5]: 0
- Pigweed plant response rating (0 to 100 scale) [5]: 0
- Plant response rating, Foxtail, Giant [6]: 0
- Foxtail, Giant plant response rating (0 to 100 scale) [6]: 0
- Plant response rating, Barnyardgrass [7]: 0
- Barnyardgrass plant response rating (0 to 100 scale) [7]: 0
- Plant response rating, Crabgrass, Large [8, 25]: 0
- Plant response rating, Crabgrass, Large [8, 26]: 0
- Plant response rating, Corn [9, 25]: 0
- Plant response rating, Corn [9, 26]: 0
- Plant response rating, Wheat [10, 25]: 0
- Plant response rating, Wheat [10, 26]: 0
- Plant response rating, Velvetleaf [11, 25]: 10
- Plant response rating, Velvetleaf [11, 26]: 0
- Plant response rating, Pigweed [12, 25]: 0
- Plant response rating, Pigweed [12, 26]: 0
- Plant response rating, Morningglory [13, 25]: 0
- Plant response rating, Morningglory [13, 26]: 0
- Plant response rating, Foxtail, Giant [14, 25]: 0
- Plant response rating, Foxtail, Giant [14, 26]: 0
- Plant response rating, Barnyardgrass [15, 25]: 0
- Plant response rating, Barnyardgrass [15, 26]: 0
- Plant response rating (scale of 0 to 100), Rice ([16]; 31 g ai/ha): 0
- Plant response rating (scale of 0 to 100), Rice ([16]; 62 g ai/ha): 0
- Plant response rating (scale of 0 to 100), Rice ([16]; 125 g ai/ha): 0
- Plant response rating (scale of 0 to 100), Rice ([16]; 250 g ai/ha): 0
- Plant response rating (scale of 0 to 100), Sedge, Umbrella ([17]; 31 g ai/ha): 0
- Plant response rating (scale of 0 to 100), Sedge, Umbrella ([17]; 62 g ai/ha): 0
- Plant response rating (scale of 0 to 100), Sedge, Umbrella ([17]; 125 g ai/ha): 0
- Plant response rating (scale of 0 to 100), Sedge, Umbrella ([17]; 250 g ai/ha): 0
- Plant response rating (scale of 0 to 100), Ducksalad ([18]; 31 g ai/ha): 0
- Plant response rating (scale of 0 to 100), Ducksalad ([18]; 62 g ai/ha): 0
- Plant response rating (scale of 0 to 100), Ducksalad ([18]; 125 g ai/ha): 0
- Plant response rating (scale of 0 to 100), Ducksalad ([18]; 250 g ai/ha): 0
- Plant response rating (scale of 0 to 100), Barnyardgrass ([19]; 31 g ai/ha): 0
- Plant response rating (scale of 0 to 100), Barnyardgrass ([19]; 62 g ai/ha): 0
- Plant response rating (scale of 0 to 100), Barnyardgrass ([19]; 125 g ai/ha): 0
- Plant response rating (scale of 0 to 100), Barnyardgrass ([19]; 250 g ai/ha): 0

SMILES: O=C1NCC(c2ccc(-c3ccccc3)cc2)C1C(=O)Nc1ccccc1C(F)(F)F (racemic) [Compound 367]
- Plant response rating, Crabgrass, Large [1]: 0
- Crabgrass, Large plant response rating (0 to 100 scale) [1]: 0
- Plant response rating, Corn [2]: 0
- Corn plant response rating (0 to 100 scale) [2]: 0
- Plant response rating, Wheat [3]: 0
- Wheat plant response rating (0 to 100 scale) [3]: 0
- Plant response rating, Velvetleaf [4]: 0
- Velvetleaf plant response rating (0 to 100 scale) [4]: 0
- Plant response rating, Pigweed [5]: 0
- Pigweed plant response rating (0 to 100 scale) [5]: 0
- Plant response rating, Morningglory ([20]; 125 g ai/ha, preemergence, 0 to 100 scale (0 no effect, 100 complete control)): 0
- Morningglory plant response rating (0 to 100 scale) ([20]; Preemergence, 500 g ai/ha, 0 is no effect, 100 is complete control): 0
- Plant response rating, Foxtail, Giant [6]: 0
- Foxtail, Giant plant response rating (0 to 100 scale) [6]: 0
- Plant response rating, Barnyardgrass [7]: 0
- Barnyardgrass plant response rating (0 to 100 scale) [7]: 0
- Plant response rating, Crabgrass, Large [8, 25]: 0
- Plant response rating, Crabgrass, Large [8, 26]: 0
- Plant response rating, Corn [9, 25]: 0
- Plant response rating, Corn [9, 26]: 0
- Plant response rating, Wheat [10, 25]: 0
- Plant response rating, Wheat [10, 26]: 0
- Plant response rating, Velvetleaf [11, 25]: 0
- Plant response rating, Velvetleaf [11, 26]: 0
- Plant response rating, Pigweed [12, 25]: 0
- Plant response rating, Pigweed [12, 26]: 0
- Plant response rating, Morningglory [13, 25]: 0
- Plant response rating, Morningglory [13, 26]: 0
- Plant response rating, Foxtail, Giant [14, 25]: 0
- Plant response rating, Foxtail, Giant [14, 26]: 0
- Plant response rating, Barnyardgrass [15, 25]: 0
- Plant response rating, Barnyardgrass [15, 26]: 0
- Plant response rating, Sedge, Umbrella [21]: 0
- Plant response rating, Rice [22]: 0
- Plant response rating, Ducksalad [23]: 0
- Plant response rating, Barnyardgrass [24]: 0

Source: patent publication US12077503B2, “Substituted cyclic amides and their use as herbicides” (FMC CORPORATION, priority 2015, dated 2024)
